Test results as given in US6723897B2, “Methods for controlling gibberellin levels” (Monsanto Technology, LLC, priority 1998, dated 2004).

What was measured:
[1] = Half-lives of 14C-labelled GA compounds in planta; settings: for Half-life (days) in planta: ^14C-labelled compound on seed of Asgrow 3237 soybeans
Method: ^14C-radiolabelled compounds are obtained from Lew Mander (Australian National University). ^14C-GA3 is dissolved in water:ethanol, 80:20, v/v; ^14C-GA9 and ^14C-GA12 are dissolved in 100% ethanol. Seeds of Asgrow 3237 soybeans are treated separately with solutions of each of the ^14C-radiolabelled compounds (1.7-6.8 μg; 10-40 ppm; 111,000-2,000,000 dpm/seed) by placing one to four μl of the dosing solution directly on the seed coat (^14C-GA3, GA9, and GA12), or on the hilum portion of the seed (^14C-GA3). After evaporation of the carrier solvent (approx. one hour), the treated seed is planted in containers containing approximately 30 gm of Metromix-350, and transferred to a growth chamber. Plants are grown under a 12 hour light/12 hour dark regime at 92° F. (33° C.)and 75% humidity. The pattern of uptake and translocation of ^14C-radioactivity in treated seed is monitored up to 12 days past initial treatment. For most experiments, three replicate plants are harvested at one hour after treatment, one day after treatment (DAT), two DAT, three DAT, six or seven DAT, and 12 DAT. […] The level of ^14C-radioactivity in different plant parts is determined by extraction of plant tissues with aqueous methanol and scintillation counting. The extent of metabolism of the ^14C-labelled GA compounds in planta is determined by HPLC analysis of plant extracts. […]
The general extraction procedure consisted of blending the plant parts in a high speed polytron tissue homogenizer for 1-5 minutes with 10-20 ml of ice-cold methanol:water, 80:20, v/v, followed by vacuum filtration through a Whatman glass fiber filter. The filter cake is re-extracted as necessary using the procedure described above until an insignificant amount of radioactivity is removed. Prior to combining the extracts from each sample, aliquots are weighed and analyzed by liquid scintillation counting (LSC) to determine the amount of extracted radioactivity in each extract. Aliquots of the air-dried filter cakes are combusted and analyzed by LSC in order to determine the amount of non-extracted radioactivity. […]

[2] = tested on: AX5/antisense CPScc soybean line 46 (R2); experiment: Hilum seed treatment of epicotyl-intensive GA-deficient soybean, seedling height (FIG. 42); format: in vivo, Glycine max; settings: 8 DAP
Method: These studies are performed on soybean plants engineered to express their GA-deficient phenotype throughout the life cycle via the use of the constitutive FMV promoter (line 719, FMV/antisense CPScc). In contrast to the constitutive FMV promoter, the peak activity of the AX5 promoter is developmentally restricted to the soybean seedling axis (epicotyl) three to five days after the start of imbibition, with limited expression beyond the seedling stage of development. Soybean lines transformed with the […] cassette therefore display an epicotyl-intensive dwarf phenotype. In these lines, inhibition of the hypocotyl is modest; most of the total height reduction in these plants is due to shortening of the epicotyl. Rescue of […] soybean plants therefore presents different technical challenges from those required for rescue of constitutively GA-deficient transgenic dwarf soybean lines containing the […] construct. […] Seed from both lines is produced from greenhouse-grown plants. […] If multiple applications are made to seeds, the previous application is allowed to dry before a subsequent application is made. […] (29° C.) day and 75° F. night (24° C.). Pots are watered as necessary by overhead hand watering. Hypocotyl and epicotyl measurements are made for each plant at various stages of plant growth. […] The results are shown in FIG. 42, where the error bar represents +/-two times the standard error of the mean (n=12-15). […] The upper dashed horizontal line represents the total height of untreated wild-type […] soybeans. Measurements are made 8 days after planting.

[3] = tested on: wild-type soybeans (line A3237); experiment: Summary of first two greenhouse experiments, elongation of wild-type soybeans
Method: Compounds are first prepared as 25 mg/ml solutions in ethanol as described above, and then diluted into 40 ml of water to prepare the final 0.25 mg/ml treatment solutions. Visual observations on solubilities (milky, clear, etc.) of the treatment solutions are noted. The treatment solutions are divided into two 20 ml portions, each in 50 ml plastic centrifuge tubes. In addition to treating seeds with solutions containing the test compounds, untreated seeds and seeds imbibed in ethanol-water solution (300 μl ethanol in 30 mls of water) are also included in this experiment as controls. In the latter case, 20 seeds are imbibed in 30 mls of solution for six hours.
Two soybean varieties are selected for testing: constitutively GA-deficient transgenic dwarf soybean line 719 (plasmid pMON29801, constitutive FMV promoter/asCPScc; which is a mixture of 719−2 and 719+17), and A3237, the wild-type parent material. […] After imbibition, seeds are removed from the test tubes, placed on wax paper to dry, and planted in bread pans containing farm soil amended with fertilizer at 20 seeds/pan. Seeds are covered with 0.5″ of vermiculite. Pans are transferred to the greenhouse, which had day/night temperatures of 86/68° F. (30/20° C.), and subirrigated. Illumination is at a light intensity of 300-400 μmolm^−2s^−1 photosynthetic photon flux; 16 hours light/8 hours dark. Subsequent waterings are also through sub-irrigation until the test is terminated three weeks later. Observations included the number of dwarf, intermediate, and tall plants; plant height; uniformity of rescue; and any visual effects.
All compounds are tested at final concentrations of 0.25, 0.025, and 0.0025 mg/ml except for GA9, which is tested at 0.125, 0.0125, and 0.00125 mg/ml. (The compounds are tested in Experiment I at only one concentration, i.e., 0.25 mg/ml). Test tubes contained […] of ethanol solution per tube. Final volumes are made up to 30 ml with deionized water. After shaking, the treatment solutions (15 ml each) are transferred to each of two 50 ml test tubes. Treatments 1 to 27 are performed on wild-type line A3237; treatments 28 to 54 are performed on constitutively GA-deficient transgenic dwarf soybean line 719 (a mixture of 719−2 and 719+17). Twenty seeds are used in each treatment. Dry seed, ethanol/water-imbibed seed (1% ethanol in water, v/v), and water-imbibed seeds are included as controls. Seeds are imbibed for 6 hours in the test solutions, then planted in bread pans containing Metromix 350 (The Scotts Company, Marysville, Ohio), and covered with 0.5″ Metro-mix. Covered pans are transferred to the greenhouse and subirrigated. Illumination is at a light intensity of 300-400 μmolm^−2s^−1 photosynthetic photon flux; 16 hours light/8 hours dark. Subsequent waterings are also through sub-irrigation until the test is terminated three weeks later. Observations included the number of dwarf, intermediate, and tall plants; plant height; uniformity of rescue; and any visual effects. Digital photographs are also taken.

[4] = 0.0025 mg/ml solution (ethanol-water)
[5] = 0.025 mg/ml solution (ethanol-water)
[6] = 0.25 mg/ml solution (ethanol-water)

Compound | half-life ([1]; Asgrow 3237, soybean (Glycine max), in vivo) | effect on line 46 total height [2] | Elongation of wild-type soybeans [3, 4] | Elongation of wild-type soybeans [3, 5] | Elongation of wild-type soybeans [3, 6] | Half-life (days) in planta [1] | activity relative to GA3, GA3-3-acetate and GA5 [2] | Elongation of wild-type soybeans ([3]; 0.00125 mg/ml solution (ethanol-water)) | Elongation of wild-type soybeans ([3]; 0.0125 mg/ml solution (ethanol-water)) | Elongation of wild-type soybeans ([3]; 0.125 mg/ml solution (ethanol-water)) | line 46 seedling height ([2]; concentrations up to 40 μg/seed)
C=C1C[C@]23C[C@@]1(O)CC[C@H]2[C@@]12C=C[C@H](O)[C@@](C)(C(=O)O1)[C@H]2[C@@H]3C(=O)O [GA3, gibberellic acid] | 48 to 72 h | rescued AX5/asCPScc soybean line 46 total height, with some hypocotyl over-elongation | + | + | + |  |  |  |  |  | 
C=C1C[C@]23C[C@@]1(O)CC[C@H]2[C@@]12C=C[C@H](OC(C)=O)[C@@](C)(C(=O)O1)[C@H]2[C@@H]3C(=O)O [GA3-3-acetate] |  | rescued AX5/asCPScc soybean line 46 total height, with some hypocotyl over-elongation |  |  |  |  |  |  |  |  | 
C=C1C[C@]23C[C@@]1(O)CC[C@H]2[C@@]12CC=C[C@@](C)(C(=O)O1)[C@H]2[C@@H]3C(=O)O [GA5] |  | rescued AX5/asCPScc soybean line 46 total height, with some hypocotyl over-elongation | 0 | 0 | + |  |  |  |  |  | 
C=C1C[C@]23C[C@H]1CC[C@H]2[C@@]12CCC[C@@](C)(C(=O)O1)[C@H]2[C@@H]3C(=O)O [GA9] |  | rescued AX5/asCPScc soybean line 46 total height, with some hypocotyl over-elongation |  |  | + | <1 days | approximately ten times less active | − | 0 | 0 | 
C=C1C[C@]23C[C@H]1CC[C@H]2[C@]1(C)CCC[C@@](C)(C(=O)O)[C@H]1[C@@H]3C(=O)O [GA12] |  | reduced plant height | 0 | − | − | <1 days |  |  |  |  | did not increase line 46 seedling height
C=C1C[C@@]23CC[C@H]4[C@@](C)(CCC[C@@]4(C)C(=O)O)[C@@H]2CC[C@@H]1C3 [kaurenoic acid] |  |  | 0 | 0 | − |  |  |  |  |  | 
